Read-outs that look alike come from different tables or passages of the source.
Target: NMDA receptor (NR1 + NR2 subunits) (Rattus norvegicus, UniProt P35439+Q00960)
Experiment: Two electrode voltage clamp recording from Xenopus laevis oocytes (pH dependence of NMDA antagonism)
Type: cell-based
Procedure: cRNA was synthesized from linearized template cDNA for rat glutamate receptor subunits according to manufacturer specifications (Ambion). Quality of synthesized cRNA was assessed by gel electrophoresis, and quantity was estimated by spectroscopy and gel electrophoresis. Stage V and VI oocytes were surgically removed from the ovaries of large, well-fed and healthy Xenopus laevis anesthetized with 3-amino-benzoic acid ethyl ester (3 gm/l) as previously described. Clusters of isolated oocytes were incubated with 292 U/ml Worthington (Freehold, N.J.) type IV collagenase or 1.3 mg/ml collagenase (Life Technologies, Gaithersburg, Md.; 17018-029) for 2 hr in Ca^2+-free solution comprised of (in mM) 115 NaCl, 2.5 KCl, and 10 HEPES, pH 7.5, with slow agitation to remove the follicular cell layer. Oocytes were then washed extensively in the same solution supplemented with 1.8 mM CaCl2 and maintained in Barth's solution comprised of (in mM): 88 NaCl, 1 KCl, 2.4 NaHCO3, 10 HEPES, 0.82 MgSO4, 0.33 Ca(NO3)2, and 0.91 CaCl2 and supplemented with 100 μg/ml gentamycin, 10 μg/ml streptomycin, and 10 μg/ml penicillin. Oocytes were manually defolliculated and injected within 24 hrs of isolation with 3-5 ng of NR1 subunit cRNA and 7-10 ng of NR2 cRNA subunit in a 50 nl volume, or 5-10 ng of AMPA or kainate receptor cRNAs in a 50 nl volume, and incubated in Barth's solution at 18° C. for 1-7 d. Glass injection pipettes had tip sizes ranging from 10-20 microns, and were backfilled with mineral oil.
Two electrode voltage-clamp recordings were made 2-7 days post-injection as previously described. Oocytes were placed in a dual-track plexiglass recording chamber with a single perfusion line that splits in a Y-configuration to perfuse two oocytes. Dual recordings were made at room temperature (23° C.) using two Warner OC725B two-electrode voltage clamp amplifiers, arranged as recommended by the manufacturer. Glass microelectrodes (1-10 Megaohms) were filled with 300 mM KCl (voltage electrode) or 3 M KCl (current electrode). The bath clamps communicated across silver chloride wires placed into each side of the recording chamber, both of which were assumed to be at a reference potential of 0 mV. Oocytes were perfused with a solution comprised of (in mM) 90 NaCl, 1 KCl, 10 HEPES, and 0.5 BaCl2; pH was adjusted by addition of 1-3 M NaOH of HCl. Oocytes were recorded under voltage clamp at −40 mV. Final concentrations for control application of glutamate (50 μM) plus glycine (30 μM) were achieved by adding appropriate volumes from 100 and 30 mM stock solutions, respectively. In addition, 10 μM final EDTA was obtained by adding a 1:1000 dilution of 10 mM EDTA, in order to chelate contaminant divalent ions such as Zn^2+. Concentration-response curves for experimental compounds were obtained by applying in successive fashion maximal glutamate/glycine, followed by glutamate/glycine plus variable concentrations of experimental compounds. Dose response curves consisting of 4 to 8 concentrations were obtained in this manner. The baseline leak current at −40 mV was measured before and after recording, and the full recording linearly corrected for any change in leak current. Oocytes with glutamate-evoked responses smaller than 50 nA were not included in the analysis. The level of inhibition by applied experimental compounds was expressed as a percent of the initial glutamate response, and averaged together across oocytes from a single frog. Each experiment consisted of recordings from 3 to 10 oocytes obtained from a single frog. Results from 3-6 experiments were pooled, and the average percent responses at antagonist concentrations were fitted by the equation,
Percent Response=(100−minimum)/(1+([conc]/IC50)^nH)+minimum […]

[1] = pH 6.9, Table 19, read-out: IC50 at pH 6.9
[2] = pH 7.6, Table 19, read-out: IC50 at pH 7.6
[3] = pH 6.9, Table 20, read-out: IC50 at pH 6.9
[4] = pH 7.6, Table 20, read-out: IC50 at pH 7.6
[5] = pH 6.9, Table 21, read-out: IC50 at pH 6.9
[6] = pH 7.6, Table 21, read-out: IC50 at pH 7.6

Sequence of NMDA receptor (NR1 + NR2 subunits) (Q00960 27-1482, other chains not shown): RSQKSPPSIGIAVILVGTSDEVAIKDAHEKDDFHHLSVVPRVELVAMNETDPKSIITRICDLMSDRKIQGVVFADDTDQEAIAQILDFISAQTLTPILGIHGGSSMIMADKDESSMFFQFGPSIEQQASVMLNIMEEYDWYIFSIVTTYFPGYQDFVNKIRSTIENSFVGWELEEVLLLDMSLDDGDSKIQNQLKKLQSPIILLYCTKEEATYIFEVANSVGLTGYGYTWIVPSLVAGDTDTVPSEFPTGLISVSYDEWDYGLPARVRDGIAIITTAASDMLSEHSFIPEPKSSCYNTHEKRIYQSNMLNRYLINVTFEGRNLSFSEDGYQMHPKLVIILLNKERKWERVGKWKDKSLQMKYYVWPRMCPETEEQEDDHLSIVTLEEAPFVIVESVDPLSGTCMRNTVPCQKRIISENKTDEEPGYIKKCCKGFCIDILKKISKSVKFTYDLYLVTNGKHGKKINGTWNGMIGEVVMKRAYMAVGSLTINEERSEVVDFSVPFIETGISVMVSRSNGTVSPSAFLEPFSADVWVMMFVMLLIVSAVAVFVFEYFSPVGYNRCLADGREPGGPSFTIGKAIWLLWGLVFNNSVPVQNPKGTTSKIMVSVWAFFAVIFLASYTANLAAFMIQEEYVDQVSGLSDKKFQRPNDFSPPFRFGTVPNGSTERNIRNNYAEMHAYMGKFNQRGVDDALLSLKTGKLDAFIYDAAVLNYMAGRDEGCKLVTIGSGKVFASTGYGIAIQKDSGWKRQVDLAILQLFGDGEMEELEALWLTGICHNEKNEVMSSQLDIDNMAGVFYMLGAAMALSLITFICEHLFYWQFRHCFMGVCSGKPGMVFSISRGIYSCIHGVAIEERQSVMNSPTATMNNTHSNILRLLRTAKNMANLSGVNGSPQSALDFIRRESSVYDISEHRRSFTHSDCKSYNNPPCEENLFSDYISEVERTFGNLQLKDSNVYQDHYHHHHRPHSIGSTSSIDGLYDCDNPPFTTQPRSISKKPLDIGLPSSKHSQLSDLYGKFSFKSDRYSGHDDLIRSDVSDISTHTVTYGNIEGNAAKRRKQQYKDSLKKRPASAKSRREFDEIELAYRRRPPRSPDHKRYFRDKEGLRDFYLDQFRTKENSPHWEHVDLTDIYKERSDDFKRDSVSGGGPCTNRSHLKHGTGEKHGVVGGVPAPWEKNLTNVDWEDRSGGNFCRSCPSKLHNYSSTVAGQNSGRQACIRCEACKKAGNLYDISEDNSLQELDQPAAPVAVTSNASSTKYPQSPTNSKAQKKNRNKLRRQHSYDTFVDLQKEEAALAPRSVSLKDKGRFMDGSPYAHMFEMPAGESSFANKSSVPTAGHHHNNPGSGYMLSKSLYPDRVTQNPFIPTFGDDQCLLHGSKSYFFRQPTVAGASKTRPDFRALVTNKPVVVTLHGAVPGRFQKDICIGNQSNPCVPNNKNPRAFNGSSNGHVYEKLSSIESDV

IC50 [1] | IC50 [2] | SMILES | further results
6.95 µM | 191 µM | Oc1ccc(OCC(O)CN2CCN(c3ccc(-c4ccccc4)cc3)CC2)cc1 (centres unmarked) | –
0.529 µM | 3.56 µM | Oc1ccc(OC[C@H](O)CN2CCN(c3ccc(F)cc3F)CC2)cc1 | –
0.541 µM | 1.73 µM | Oc1ccc(OC[C@H](O)CN2CCN(c3ccccc3F)CC2)cc1 | –
0.978 µM | 4.39 µM | Oc1ccc(OCC(O)CN2CCN(c3ccccc3Cl)CC2)cc1 (centres unmarked) | –
0.43 µM | 3.93 µM | Cc1ccccc1N1CCN(C[C@@H](O)COc2ccc(O)cc2)CC1 | –
3.21 µM | 8.33 µM | N#Cc1ccccc1N1CCN(C[C@@H](O)COc2ccc(O)cc2)CC1 | –
0.217 µM | 0.476 µM | Oc1ccc(OCC(O)CN2CCN(c3ccccc3)CC2)cc1 (centres unmarked) | –
0.211 µM | 0.598 µM | Oc1ccc(OC[C@H](O)CN2CCN(c3cccc(F)c3)CC2)cc1 | –
0.341 µM | 1.74 µM | Cc1cccc(N2CCN(C[C@@H](O)COc3ccc(O)cc3)CC2)c1 | –

More lines, now with the values behind:

SMILES | IC50 [1] | IC50 [2] | further results
Oc1ccc(OCC(O)CN2CCN(c3ccc(C(F)(F)F)cc3)CC2)cc1 (centres unmarked) | 0.113 µM | 0.448 µM | –
Oc1ccc(OC[C@H](O)CN2CCN(c3cccc(Cl)c3)CC2)cc1 | 0.257 µM | 4.8 µM | –
Oc1ccc(OCC(O)CN2CCN(c3cccc(C(F)(F)F)c3)CC2)cc1 (centres unmarked) | 0.386 µM | 3.79 µM | –
Oc1ccc(OCC(O)CNCCc2ccc(Cl)c(Cl)c2)cc1 (centres unmarked) | 0.197 µM | 0.501 µM | –
CCCCN(CCc1ccc(Cl)c(Cl)c1)CC(O)COc1ccc(O)cc1 (centres unmarked) | 0.585 µM | 6.5 µM | –
Oc1ccc(OCC(O)CNCCc2ccc(Cl)c(Cl)c2)c(F)c1 (centres unmarked) | 0.116 µM | 0.33 µM | –
Oc1ccc(OCC(O)CNCCc2ccc(Cl)c(Cl)c2)cc1F (centres unmarked) | 0.114 µM | 0.549 µM | –
Oc1ccc(OC[C@H](O)CN2CCC(O)(c3ccccc3)CC2)cc1 | 0.191 µM | 0.298 µM | –
NC(=O)Nc1ccc(OCCCN2CCN(c3ccc(F)c(F)c3)CC2)cc1 | – | – | IC50 [3]: 0.082 µM; IC50 [4]: 0.696 µM
C=C(COc1ccc(NC(N)=O)cc1)CN1CCN(c2ccc(F)c(F)c2)CC1 | – | – | IC50 [3]: 0.557 µM; IC50 [4]: 10.4 µM
NC(=O)Nc1ccc(OCCCN2CCN(c3ccc(F)cc3)CC2)cc1 | – | – | IC50 [3]: 0.117 µM; IC50 [4]: 0.625 µM
NC(=O)Nc1ccc(OC[C@H](O)CN2CCN(c3ccc(Cl)cc3)CC2)cc1 | – | – | IC50 [3]: 0.019 µM; IC50 [4]: 0.06 µM
CCNC(=O)Nc1ccc(OCCCN2CCN(c3ccc(F)cc3)CC2)cc1 | – | – | IC50 [3]: 3.03 µM; IC50 [4]: 15.7 µM
COC(=O)Nc1ccc(OCCCN2CCN(c3ccc(F)cc3)CC2)cc1 | – | – | IC50 [3]: 1.54 µM; IC50 [4]: 16.2 µM
CS(=O)(=O)Nc1ccc(OCC(=O)NCCNc2ccc(Cl)c(Cl)c2)cc1 | – | – | IC50 [5]: 0.013 µM; IC50 [6]: 0.058 µM
CS(=O)(=O)Nc1ccc(OCCNCCNc2ccc(Cl)c(Cl)c2)cc1 | – | – | IC50 [5]: 0.014 µM; IC50 [6]: 0.036 µM
CS(=O)(=O)Nc1ccc(CCC(=O)N2CCN(c3ccc(Cl)c(Cl)c3)CC2)cc1 | – | – | IC50 [5]: 0.67 µM; IC50 [6]: 5.33 µM
CS(=O)(=O)Nc1ccc(CCC(=O)N2CCN(c3ccc(F)c(F)c3)CC2)cc1 | – | – | IC50 [5]: 2.2 µM; IC50 [6]: 8.4 µM
CS(=O)(=O)Nc1ccc(CCCN2CCN(c3ccc(Cl)c(Cl)c3)CC2)cc1 | – | – | IC50 [5]: 0.23 µM; IC50 [6]: 2.73 µM
CS(=O)(=O)Nc1ccc(OCC(=O)N2CCN(c3ccc(Cl)c(Cl)c3)CC2)cc1 | – | – | IC50 [5]: 0.04 µM; IC50 [6]: 0.129 µM
O=C(COc1ccc2[nH]c(=O)oc2c1)N1CCN(c2ccc(F)c(F)c2)CC1 | – | – | IC50 [5]: 0.307 µM; IC50 [6]: 0.467 µM
O=C(COc1ccc2[nH]c(=O)oc2c1)N1CCN(c2ccc(Cl)cc2)CC1 | – | – | IC50 [5]: 0.189 µM; IC50 [6]: 0.243 µM
